Experiments:
[1] = tested on: rats; settings: hydrazine poisoning; stated as well known; cited from earlier work
[2] = tested on: rats; assay: Study 7: 1H NMR / UPLC-MS correlation study of urine from rats dosed with hydrazine; format: in vivo, rat; settings: hydrazine poisoning
Method: A number of rats were dosed with hydrazine. Urine samples were collected. ^1H NMR and mass spectra were recorded for each sample. (Note that the mass spectra were recorded using an UPLC-MS experiment, in which individual mass spectra are recorded as function of elution time, here over a period of six minutes with a water-acetonitrile gradient; however, for the present study, these spectra were “summed” in order to present a single mass spectrum for each sample. This gives, in effect, “virtual direct injection mass spectra.” This is a known approach for improving MS detection in complex mixtures.)
The collection of ^1H NMR spectra was treated as a first data set (i.e., a matrix with one row for each ^1H NMR spectrum, and one column for each ^1H NMR chemical shift variable, n×p) and the collection of mass spectra was treated as a second data set (i.e., a matrix with one row for each mass spectrum, and one column for each m/z variable, n×q). The correlation matrix and the covariance matrix (each p×q or q×p) were calculated. A correlation map illustrating a part of the correlation matrix, as a function of both ^1H chemical shift (from about δ 2 to about δ 4.5) and m/z (from about 100 to about 350), is shown in FIG. 21. The correlation is indicated by colour (blue is negative correlation and red is positive correlation). A “summed” ^1H NMR spectrum is shown alongside the ^1H δ axis for illustration. Similarly, a “summed” mass spectrum is shown alongside the m/z axis for illustration.
A correlation map illustrating another (very small) part of the correlation matrix is shown in FIG. 22, specifically for ^1H chemical shift from about δ 8.8 to about δ 9.3 and m/z from about 80 to about 200. Again, a “summed” ^1H NMR spectrum is shown alongside the ^1H δ axis for illustration. Similarly, a “summed” mass spectrum is shown alongside the m/z axis for illustration. […] As expected, the mass spectrum peak at m/z 138 (for NMNA) is highly correlated with the ^1H NMR peaks at about δ 9.12 about δ 8.84 (also for NMNA). […]

[3] = tested on: rats; assay: Study 5: 1H/19F NMR correlation study of urine from rats dosed with 3-fluoroaniline; format: in vivo, rat; settings: 50 mg/kg, negative covariance with 19F δ-128.4 resonance
Method: A number of rats were dosed with 3-fluoroaniline (3-FA) at 50 mg/kg. Urine samples were collected over dry ice (i) pre-dose, (ii) after 0-24 hours, and (iii) after 24-48 hours. ^1H NMR and ^1H-decoupled ^19F NMR spectra were collected. The collection of ^1H NMR spectra was treated as a first data set (i.e., a matrix with one row for each ^1H NMR spectrum, and one column for each ^1H NMR chemical shift variable, n x p) and the collection of ^19F-NMR spectra was treated as a second data set (i.e., a matrix with one row for each ^19F NMR spectrum, and one column for each ^19F NMR chemical shift variable, n×q). The correlation matrix and the covariance matrix (each p×q or q×p) were calculated.
This resonance was selected for the correlation study.
As mentioned above, the correlation matrix and the covariance matrix (each p×q or q×p) were calculated. The correlation between the selected variable (^19F δ-128.4) of the first data set and all of the variables of the second data set (i.e., the range of ^1H δ) is given in the column/row of the correlation matrix associated with this variable (i.e., the column/row for ^19F δ-128.4). The covariance between this variable (^19F δ-128.4) and all of the variables of the second data set (i.e., the range of ^1H δ) is given in the column/row of the covariance matrix associated with this variable (i.e., the column/row for ^19F δ-128.4). […]

Compound: NN [hydrazine]
- change in N-methylnicotinamide (NMND) [1]: increase
- change in N-methylnicotinic acid (NMNA) [1]: decrease
- change in urinary creatine ([2]; m/z 90, 116): increased
- change in urinary 2-aminoadipate ([2]; m/z 98, 116): increased
- change in urinary hippurate ([2]; m/z 105, 180): decreased

Compound: Nc1cccc(F)c1 [3-fluoroaniline]
- effect on endogenous hippurate level in urine [3]: reduces the amount of hippurate
